Experimental data as given in patent US11512079B2, “Heterocycle substituted pyridine derivative antifungal agents” (Amplyx Pharmaceuticals, Inc., priority 2017, dated 2022).
Values after ≈ are worked out from the molar mass of the structure shown.

Legend:
Type in all cases: cell-based
Candida albicans 90028 = test: In vitro antifungal assay (Example IX), microdilution broth, MIC; conditions: minimum inhibitory concentration (≥50% inhibition), 35° C., 40-48 h, RPMI1640
Procedure: Measurement of antifungal activity: Antifungal activity of the compounds was evaluated in a microdilution broth assay as per Clinical and Laboratory Standard Institute methodology for yeast (for Candida and Cryptococcus) (1) and molds (for Aspergillus and Rhizomucor) (2). Candida albicans 90028, Aspergillus fumigatus MYA3626, Rhizomucor pusillus 46342 and Cryptococcus neoformans H99 strains were obtained from American Type Culture Collection (ATCC).
Preparation of Fungal Suspension. C. albicans 90028 and C. neoformans H99 strains were streaked from frozen stocks at −80° C. onto Sabouraud Dextrose Agar (SDA) plates. These were allowed to grow for 24 h (C. albicans) and 48 h (C. neoformans) at 35° C. before using them in the assay. 5-6 individual colonies were picked and diluted into sterile water to obtain a fungal suspension. The cell density of the suspension was determined and the culture diluted with RPMI1640 medium to obtain a fungal suspension of 2.5×10^3 cells/mL. The suspension was used in the MIC measurement as described below.
Preparation of Compound Stocks and Intermediate Dilutions: The compounds were weighed and DMSO was added to prepare a 10 mg/mL stock. The solutions were mixed by vortexing and sonication at 37° C. for 5-10 mins. The resulting solutions were sterile filtered using a PTFE filter, and aliquoted (12 μL or as needed) and stored at −20° C. Intermediate compound dilutions were prepared in sterile polypropylene tubes in 100% DMSO. The compound stock solution was first diluted in DMSO to obtain a concentration of […] to 0.19 μg/mL.
MIC/MEC Measurement: 99 μL 1 of the fungal suspension in RPMI1640 prepared as above was added to each well of a 96-well round bottom assay plate. 1 μL of the intermediate compound dilutions (200-0.19 μg/mL) were added to wells of the plate. This led to a 100-fold dilution of the intermediate dilutions resulting in a final compound concentration of 2-0.0019 μg/mL in the plate. 1 μL of DMSO was added to “No drug” control wells. The solutions were mixed by shaking on a plate shaker for 10 mins and plates incubated at 35° C. for 40-48 h (C. albicans, A. fumigatus, R. pusillus) and 72 h (Cryptococcus). […] This was validated by thorough mixing and reading at 600 nm on a microplate reader. The minimum concentration that led to shortening of hyphae as compared to hyphal growth in DMSO control wells was determined as the minimum effective concentration (MEC) for A. fumigatus and R. pusillus (as read for echinocandins). The use of the MIC and MEC endpoints against yeasts and molds, respectively has been described by Pfaller M A, Duncanson F, Messer S A, Moet G J, Jones R N, Castanheira M. Antimicrob Agents Chemother. 2011. 55(11):5155-8. In vitro activity of a novel broad-spectrum antifungal, E1210, tested against Aspergillus spp. determined by CLSI and EUCAST broth microdilution methods. Results are shown in Table 2, and the letters indicate the following ranges in μg/mL: […]

[1] = test system: Aspergillus fumigatus MYA3626; test: In vitro antifungal assay (Example IX), microdilution broth, MEC; conditions: minimum effective concentration (shortening of hyphae), 35° C., 40-48 h, RPMI1640
Procedure: (§1) Measurement of antifungal activity: […] Candida albicans 90028, Aspergillus fumigatus MYA3626, Rhizomucor pusillus 46342 and Cryptococcus neoformans […] strains were obtained from American Type Culture Collection (ATCC). […] (A. fumigatus) and 35° C. (R. pusillus). Water containing 1% Tween was directly added to the agar plate and gently agitated to wet and remove the Aspergillus conidia. For R. pusillus, water was added to the surface and gently massaged to wet and remove the spores. For both species, the conidia or spores and mycelial fragments were collected, followed by removal of mycelium, conidiophores and large clumps of conidia/spores. The resulting spore suspension was counted and diluted into RPMI1640 medium to adjust to a final suspension of 1-2×10^4 spores/mL. The suspension was used in the MEC measurement as described below. […] The compounds were weighed and DMSO was added to prepare a 10 mg/mL stock. The solutions were mixed by vortexing and sonication at 37° C. for 5-10 mins. The resulting solutions were sterile filtered using a PTFE filter, and aliquoted (12 μL or as needed) and stored at -20° C. Intermediate compound dilutions were prepared in sterile polypropylene tubes in 100% DMSO. […] This was validated by thorough mixing and reading at 600 nm on a microplate reader. The minimum concentration that led to shortening of hyphae as compared to hyphal growth in DMSO control wells was determined as the minimum effective concentration (MEC) for A. fumigatus and R. pusillus (as read for echinocandins). The use of the MIC and MEC endpoints against yeasts and molds, respectively has been described by Pfaller M A, Duncanson F, Messer S A, Moet G J, Jones […]. Antimicrob Agents Chemother. 2011. 55(11):5155-8. In vitro activity of a novel broad-spectrum antifungal, […], tested against Aspergillus spp. determined by CLSI and EUCAST broth microdilution methods. Results are shown in Table 2, and the letters indicate the following ranges in μg/mL: […]

[2] = test system: Rhizomucor pusillus 46342; test: as above; conditions: minimum effective concentration (shortening of hyphae), 35° C., 40-48 h, RPMI1640
Procedure: as §1

| MIC (Candida albicans 90028) | SMILES | minimal effective concentration [1] | minimal effective concentration [2] |
| --- | --- | --- | --- |
| > 1 µg/mL | Nc1ncccc1-c1cc(Cc2ccc(CCl)cc2)no1 [B, 3-(3-(4-(chloromethyl)benzyl)isoxazol-5-yl)pyridin-2-amine] | 0.1 to 1 µg/mL | > 1 µg/mL |
| > 1 µg/mL | Nc1ncccc1-c1cc(Cc2ccc(O)cc2)no1 [C, 4-((5-(2-aminopyridin-3-yl)isoxazol-3-yl)methyl)phenol] | 0.1 to 1 µg/mL | > 1 µg/mL |
| > 1 µg/mL | Nc1ncccc1-c1cc(Cc2ccc(F)nc2)no1 [E, 3-(3-((6-fluoropyridin-3-yl)methyl)isoxazol-5-yl)pyridin-2-amine] | > 1 µg/mL | > 1 µg/mL |
| > 1 µg/mL | Nc1ncccc1-c1cc(Cc2ccc(CNc3nc4ccccc4[nH]3)cc2)no1 [Example 145, N-(4-((5-(2-aminopyridin-3-yl)isoxazol-3-yl)methyl)benzyl)-1H-benzo[d]imidazol-2-amine] | > 1 µg/mL | > 1 µg/mL |
| > 1 µg/mL | Nc1ncccc1-c1cc(Cc2cccc(OCCc3cccc(F)c3)n2)no1 [Example 147, 3-(3-((6-(3-fluorophenethoxy)pyridin-2-yl)methyl)isoxazol-5-yl)pyridin-2-amine] | > 1 µg/mL | > 1 µg/mL |
| 0.1 to 1 µg/mL (≈ 0.244 to 2.44 µM) | Nc1ncccc1-c1cc(Cc2ccc(Cc3cccc(C(F)(F)F)n3)cc2)no1 [Example 151, 3-(3-(4-((6-(trifluoromethyl)pyridin-2-yl)methyl)benzyl)isoxazol-5-yl)pyridin-2-amine] | 0.1 to 1 µg/mL | 0.1 to 1 µg/mL |
| 0.01 to 0.1 µg/mL (≈ 0.029 to 0.29 µM) | Cn1ccc(Cc2ccc(Cc3cc(-c4cccnc4N)on3)cc2)n1 [Example 152, 3-(3-(4-((1-methyl-1H-pyrazol-3-yl)methyl)benzyl)isoxazol-5-yl)pyridin-2-amine] | 0.01 to 0.1 µg/mL | > 1 µg/mL |
| 0.1 to 1 µg/mL (≈ 0.266 to 2.66 µM) | Nc1ncccc1-c1cc(Cc2ccc(NCc3ccc(F)cc3)nc2)no1 [Example 153, 5-((5-(2-aminopyridin-3-yl)isoxazol-3-yl)methyl)-N-(4-fluorobenzyl)pyridin-2-amine] | 0.01 to 0.1 µg/mL | > 1 µg/mL |
| > 1 µg/mL | Cc1ncsc1CCOc1ccc(Cc2cc(-c3cccnc3N)on2)cn1 [Example 155, 3-(3-((6-(2-(4-methylthiazol-5-yl)ethoxy)pyridin-3-yl)methyl)isoxazol-5-yl)pyridin-2-amine] | > 1 µg/mL | > 1 µg/mL |
| 0.1 to 1 µg/mL (≈ 0.235 to 2.35 µM) | Nc1ncccc1-c1cc(Cc2ccc(OCCc3cc(F)c(F)cc3F)nc2)no1 [Example 158, 3-(3-((6-(2,4,5-trifluorophenethoxy)pyridin-3-yl)methyl)isoxazol-5-yl)pyridin-2-amine] | 0.1 to 1 µg/mL | > 1 µg/mL |
| 0.1 to 1 µg/mL (≈ 0.235 to 2.35 µM) | Nc1ncccc1-c1cc(Cc2ccc(OCCc3c(F)cccc3Cl)nc2)no1 [Example 159, 3-(3-((6-(2-chloro-6-fluorophenethoxy)pyridin-3-yl)methyl)isoxazol-5-yl)pyridin-2-amine] | 0.1 to 1 µg/mL | > 1 µg/mL |
| 0.01 to 0.1 µg/mL (≈ 0.0265 to 0.265 µM) | Nc1ncccc1-c1cc(Cc2ccc(OCc3ncccc3F)nc2)no1 [Example 162, 3-(3-((6-((3-fluoropyridin-2-yl)methoxy)pyridin-3-yl)methyl)isoxazol-5-yl)pyridin-2-amine] | 0.1 to 1 µg/mL | > 1 µg/mL |
| > 1 µg/mL | CC(C)(COc1ccc(Cc2cc(-c3cccnc3N)on2)cn1)c1ccccc1 [Example 163, 3-(3-((6-(2-methyl-2-phenylpropoxy)pyridin-3-yl)methyl)isoxazol-5-yl)pyridin-2-amine] | 0.1 to 1 µg/mL | 0.1 to 1 µg/mL |
| > 1 µg/mL | Nc1ncccc1-c1cc(Cc2ccc(OCc3cccc4ccccc34)nc2)no1 [Example 164, 3-(3-((6-(naphthalen-1-ylmethoxy)pyridin-3-yl)methyl)isoxazol-5-yl)pyridin-2-amine] | 0.1 to 1 µg/mL | > 1 µg/mL |
| 0.1 to 1 µg/mL (≈ 0.297 to 2.97 µM) | CC(C)=CCOc1ccc(Cc2cc(-c3cccnc3N)on2)cn1 [Example 166, 3-(3-((6-((3-methylbut-2-en-1-yl)oxy)pyridin-3-yl)methyl)isoxazol-5-yl)pyridin-2-amine] | 0.01 to 0.1 µg/mL | 0.1 to 1 µg/mL |
| 0.1 to 1 µg/mL (≈ 0.255 to 2.55 µM) | Nc1ncccc1-c1cc(Cc2ccc(CNc3cc(F)cc(F)c3)cc2)no1 [Example 167, 3-(3-(4-(((3,5-difluorophenyl)amino)methyl)benzyl)isoxazol-5-yl)pyridin-2-amine] | 0.01 to 0.1 µg/mL | 0.1 to 1 µg/mL |
| 0.1 to 1 µg/mL (≈ 0.262 to 2.62 µM) | Nc1ncccc1-c1cc(Cc2ccc(Cn3ncc4ccccc43)cc2)no1 [Example 170, 3-(3-(4-((1H-indazol-1-yl)methyl)benzyl)isoxazol-5-yl)pyridin-2-amine] | 0.1 to 1 µg/mL | 0.1 to 1 µg/mL |
| 0.01 to 0.1 µg/mL (≈ 0.0262 to 0.262 µM) | Nc1ncccc1-c1cc(Cc2ccc(Cn3cc4ccccc4n3)cc2)no1 [Example 171, 3-(3-(4-((2H-indazol-2-yl)methyl)benzyl)isoxazol-5-yl)pyridin-2-amine] | 0.1 to 1 µg/mL | 0.1 to 1 µg/mL |
| 0.1 to 1 µg/mL (≈ 0.291 to 2.91 µM) | Nc1ncccc1-c1cnn(Cc2ccc(Oc3ccccc3)nc2)c1 [compound 63, 3-(1-((6-phenoxypyridin-3-yl)methyl)-1H-pyrazol-4-yl)pyridin-2-amine] | – | > 1 µg/mL |
| 0.1 to 1 µg/mL (≈ 0.305 to 3.05 µM) | c1ccc(Oc2ccc(Cn3cc(-c4cccnc4)cn3)cn2)cc1 [compound 64, 2-phenoxy-5-((4-(pyridin-3-yl)-1H-pyrazol-1-yl)methyl)pyridine] | – | > 1 µg/mL |
| – | Nc1ncccc1-c1cc(Cc2ccc(OCCc3cccc(F)c3)nc2)no1 [compound 91, 3-(3-((6-(3-fluorophenethoxy)pyridin-3-yl)methyl)isoxazol-5-yl)pyridin-2-amine] | – | > 1 µg/mL |
| – | Nc1ncccc1-c1cc(Cc2ccc(OCc3cc(Cl)ccn3)nc2)no1 [compound 92, 3-(3-((6-((4-chloropyridin-2-yl)methoxy)pyridin-3-yl)methyl)isoxazol-5-yl)pyridin-2-amine] | – | 0.1 to 1 µg/mL |
| > 1 µg/mL | Nc1ncccc1-c1cc(Cc2ccc(CNc3nc(=O)[nH]cc3F)cc2)no1 [compound 232, 4-((4-((5-(2-aminopyridin-3-yl)isoxazol-3-yl)methyl)benzyl)amino)-5-fluoropyrimidin-2(1H)-one] | > 1 µg/mL | – |
